From US6281250A, “Retinyl ethers, derivatives and analogues and inhibition of breast carcinogenesis” (Southern Research Institute, priority 1999, dated 2001)
Entries after “also recorded” stand apart in the source; their conditions may differ.

Assays:
[1] = Stability of retinyl ethers in storage and in solution; assay type: physicochemical
[2] = system: MNU-induced mammary cancer; assay: Short-term (90-day) assay against MNU-induced mammary cancer in rats (Expts. 2 and 3); assay type: in vivo, rat (female Sprague-Dawley); conditions: 90 days
Description: (§1) Retinoid diet mixtures were stored at 4° C. […] The animals were palpated for mammary tumors 2×/week. […] Also, five rats/group had complete necropsies performed.
(§2) The 2,5-dimethoxybenzyl (3b) and 4-methoxybenzyl (3e) ethers were tested in the same way in a 90-day study. […] The 2,5-dimethybenzyl (3c) and the 2,3-dimethoxybenzyl (3h) ethers, together with RTMBE for comparison, were likewise assayed according to the same methodology. Prior to the beginning of this study, specimens of the retinoid-diet mixtures were placed under the conditions that were employed during the storage and feeding of RTMBE, 3c, and 3h. The specimens were extracted with butanol, and the extracts were analyzed by HPLC. […] Testing of 3c and 3h was discontinued, but the RTMBE study was continued until the duration of the study was 180 days (Table 6). The results were similar to those of Experiment 1 (Table 3). The averages of the number of tumors per rat were reduced by 32-35%; in addition, the averages of the tumor weights per rat was 56-70% lower than the average tumor burden of the control group.
and was continued until the studies of 3b, 3c, 3e, and 3h were terminated
90 days after administration of MNU. The RTMBE experiment was continued
until 180 days after MNU administration (Table VI).
kilogram of Teklad diet.

[3] = system: NADPH-requiring enzymes in rat liver microsomes; assay: Conversion of retinyl ethers to retinol by rat liver microsomal enzymes; assay type: in vitro ADME; conditions: in vitro
Description: Because it was postulated, as stated above, that new retinyl ethers might not be converted by mircrosomal oxidases to retinol, RTMBE and 3a-i were tested in vitro in the same way.

[4] = Analysis of feed samples for stability of retinyl ethers; assay type: physicochemical
Description: as §2
^a The values in each column are % recoveries of the retinyl ether from
mixtures of the ether with feed samples and are based on the actual
amounts of the ether that were added.
^b The samples that were analyzed were mixtures of vehicle, retinoid,
and feed (prepared as described by Shealy et al., 1997).
^c Food cups were placed in animal cages within the room that housed
the rats; therefore, temperature (22° C.) and lighting were
identical to those in use during the in vivo tests.

[5] = Toxicity observations in rats receiving retinoids in feed; assay type: in vivo, rat (Sprague-Dawley); conditions: administered in feed, listed as RTMBE
Description: as §1

[6] = system: MNU-induced mammary cancer; assay: 180-day study of RTMBE for suppression of MNU-induced mammary carcinogenesis (Expt. 3); assay type: in vivo, rat (female Sprague-Dawley)
Description: as §1, §2
^a Each group of female Sprague-Dawley rats (10/group) received one
until Day 180 after injection of MNU.
and was continued until the study was terminated at 180 days after MNU.

[7] = molecular target: T1, cellular retinol-binding protein (CRBP) (Rattus norvegicus, UniProt P02696); assay: Binding to cellular retinol-binding protein (CRBP): inhibition of [3H]retinol binding, sucrose density-gradient sedimentation
T1 construct: portions of rat testes cytosol (1 mg protein) were incubated; from tissue; host or cells: rat testes cytosol
T1 sequence (P02696 1-135): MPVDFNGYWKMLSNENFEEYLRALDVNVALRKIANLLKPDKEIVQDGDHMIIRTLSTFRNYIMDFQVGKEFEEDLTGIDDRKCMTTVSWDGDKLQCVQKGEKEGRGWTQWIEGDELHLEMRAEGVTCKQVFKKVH
Description: Binding affinities of the retinyl ethers for CRBP were determined by sucrose, density-gradient, sedimentation analysis as described before (Sani et al., 1980). Briefly, portions of rat testes cytosol (1 mg protein) were incubated with [^3 H]retinol (50 pmol) in the presence or absence of a 150-fold molar excess of unlabeled retinol or the test retinoids. The preparations after dialysis were analyzed by 5-20% sucrose density gradient sedimentation. For measuring the competitive binding of the unlabeled retinoids, inhibition of [^3 H]retinol binding to CRBP by unlabeled retinol is regarded as 100%. The mean and standard deviation calculated from the relative inhibitions obtained from multiple determinations were used as the relative binding affinities of the various retinyl ethers.
The group of retinyl benzyl ethers has now been evaluated for binding to CRBP. Binding to CRBP, as defined for Table I, at approximately 60% or higher was rated as strong; at 40-60%, as moderate; at 20-40%, as low.
^a Per cent inhibition of binding of tritiated retinol to CRBP by a
150-fold molar excess of the unlabelled test retinoid (Sani et al., 1980,

[8] = 7 days, 25.5±1.5° C., protected

With `COc1cc(COC/C=C(C)/C=C/C=C(C)/C=C/C2=C(C)CCCC2(C)C)cc(OC)c1OC` [Compound 2, Retinyl 3,4,5-Trimethoxybenzyl Ether] as the molecule, how does the stability on storage ([1]; 5 years at -20° C., inert atmosphere) read?
Its stability on storage is “unchanged”.

What about the “stability in DMSO” value [1, 8] of the same molecule?
Its value is “changed very little”.

And the “stability in absolute ethanol” value [1, 8]?
Its value is “practically unchanged”.

What about the remaining at 43830 h ([1]; inert atmosphere storage, 5 years at -20° C., inert atmosphere, read-out: HPLC on re-analysis after storage) of the same molecule?
Its remaining at 43830 h is 99.2%.

What about the “reduction of the number of tumors per rat” value ([2]; at 1 mmol/kg) of the same molecule?
Its value is 64%.

And the “Tumors, % of Control Gp.” value ([2]; Expt. 3, 0.5 mmol/kg diet)?
Its value is 78%.

And the “Tumors, Avg. No. per Rat” value ([2]; Expt. 3, 0.5 mmol/kg diet)?
The value was 1.5.

What about the “Tumors, % of Control Gp.” value ([2]; Expt. 3, 1 mmol/kg diet) of the same molecule?
The value was 36%.

And the “Tumors, Avg. No. per Rat” value ([2]; Expt. 3, 1 mmol/kg diet)?
Its value is 0.7.

And the “Tumors, % of Control Gp.” value ([2]; Expt. 3, 2 mmol/kg diet)?
The value was 36%.

And the “Tumors, Avg. No. per Rat” value ([2]; Expt. 3, 2 mmol/kg diet)?
The value was 0.7.

And the conversion to retinol [3]?
The conversion to retinol was “not detectable”.

What about the “% recovery of retinyl ether from feed” value ([4]; After 1 week of 4° C., 10080 min) of the same molecule?
Its value is 101%.

And the “% recovery of retinyl ether from feed” value ([4]; After 1 day in food cup (22° C.))?
Its value is 97%.

And the “% recovery of retinyl ether from feed” value ([4]; After 2 days in food cup (22° C.))?
The value was 104%.

What about the “% recovery of retinyl ether from feed” value ([4]; After 3 days in food cup (22° C.)) of the same molecule?
Its value is 97.5%.

What about the “% recovery of retinyl ether from feed” value ([4]; Immediately After Mixing) of the same molecule?
Its value is 99.8%.

What about the “% recovery of retinyl ether” value ([4]; Vehicle + Retinoid (only)) of the same molecule?
The value was 97%.

And the “stability in diet mixtures” value ([4]; conditions of storage and feeding in animal rooms)?
Its value is “essentially unchanged”.

What about the “toxicity in MNU-mammary cancer studies” value [5] of the same molecule?
The value was “Overt toxicity was not evident; also recorded: not toxic in the mammary carcinogenesis studies”.

What about the “Adenocarcinomas, % of Control Gp.” value ([6]; 0.5 mmol/kg diet, 180 days) of the same molecule?
The value was 65%.

And the “Adenocarcinomas, Avg. No. Per Rat” value ([6]; 0.5 mmol/kg diet, 180 days)?
The value was 4.07.

And the “Final Body Wt.” value ([6]; 0.5 mmol/kg diet, 180 days)?
The value was 259 g.

What about the “Tumor Wt. Per Rat” value ([6]; 0.5 mmol/kg diet, 180 days) of the same molecule?
Its value is 7.0 g.

What about the “Adenocarcinomas, % of Control Gp.” value ([6]; 1 mmol/kg diet, 180 days) of the same molecule?
Its value is 67%.

And the “Adenocarcinomas, Avg. No. Per Rat” value ([6]; 1 mmol/kg diet, 180 days)?
Its value is 4.20.

And the “Final Body Wt.” value ([6]; 1 mmol/kg diet, 180 days)?
The value was 252 g.

What about the “Tumor Wt. Per Rat” value ([6]; 1 mmol/kg diet, 180 days) of the same molecule?
Its value is 7.57 g.

And the “Adenocarcinomas, % of Control Gp.” value ([6]; 2 mmol/kg diet, 180 days)?
Its value is 68%.

And the “Adenocarcinomas, Avg. No. Per Rat” value ([6]; 2 mmol/kg diet, 180 days)?
Its value is 4.27.

What about the “Final Body Wt.” value ([6]; 2 mmol/kg diet, 180 days) of the same molecule?
The value was 246 g.

What about the “Tumor Wt. Per Rat” value ([6]; 2 mmol/kg diet, 180 days) of the same molecule?
The value was 5.14 g.

And the “average tumor weight per rat lower than control group” value ([6]; 180 days, 0.5-2 mmol/kg diet)?
The value was 56-70%.

What about the “reduction of average number of tumors per rat” value ([6]; 180 days, 0.5-2 mmol/kg diet) of the same molecule?
The value was 32-35%.

What about the “suppression of MNU-induced mammary cancer” value ([6]; three long-term experiments of 160-180 days) of the same molecule?
Its value is “suppressed MNU-induced mammary cancer”.

What about the “Binding to CRBP, rating” value ([7]; 150-fold molar excess) of the same molecule?
The value was “strong or moderate binding”.

And the “binding to CRBP, in words” value ([7]; 150-fold molar excess)?
Its value is “bind to CRBP”.

What about the “Percent Inhibition of [3H] Retinol Binding (CRBP Assay)” value ([7]; 150-fold molar excess of unlabelled test retinoid, rat testes cytosol) of the same molecule?
Its value is 66 ± 12%.
